Reference: US5308581A, “Substance of an optical fluorescence measuring arrangement for measuring the pH of a sample and optical sensor with such an indicator substance” (AVL Medical Instruments AG, priority 1990, dated 1994)
Read-outs that look alike come from different tables or passages of the source.

What was measured:
Assay type in all cases: physicochemical
[1] = pH measuring range of the indicator via luminescence decay time
Method: (§1) In an embodiment of the invention referring to item 1, the indicator is immobilized on a solid substrate, for example, and is brought into contact with the sample. […] After separation of the exciting light by means of a cut-off filter, fluorescence is detected over a broad band of the spectrum (for instance, by means of a photomultiplier or a pin photodiode) and decay time is measured electronically. As dissociation takes place in the ground state, both the absorption spectrum and the fluorescence spectrum are modified, which will have no negative effect on the measurement, however, due to the broad-band character of excitation and detection, or rather, due to the choice of the excitation wavelength in the overlap region of the absorption spectra and the broad detection band. Via a stored calibrating function the recorded decay times may be converted into pH values by a computer.
(§2) In an embodiment of the invention referring to item 2, a suitable indicator is immobilized on a solid substrate, and is dipped into the sample. Excitation takes place monochromatically with the use of a short-time light source (e.g., a coaxial flashlamp) and a color filter tuned to the absorption wavelength of the indicator (e.g., an interference filter). After separation of the exciting light by means of a cut-off filter, emission is detected over a broad band of the spectrum (for instance, by means of a photomultiplier or a pin photodiode). The pH value again is determined from the measured decay time via a stored calibrating function.

[2] = luminescence decay time of the acidic and basic forms of the indicator in the excited state; conditions: for luminescence decay time excited state .tau.(AH*): excited acid AH*; for luminescence decay time excited state .tau.(A-*): excited conjugate base A^-*; for luminescence decay time excited state .tau.(B*): excited base B*; for luminescence decay time excited state .tau.(BH+*): excited conjugate acid BH^+*
Method: .tau. lifetime of the excited state (luminescence
as §1, §2

[3] = acid dissociation of the indicator in its electronically excited state (pKa *); conditions: for pKa * value in the excited state exceeds the pKa value in the ground state by: increase
Description: S and .tau.B of the acidic forms (AH*, BH^+*) and basic forms (S^-*, B*) of the indicator differ from each other. In both fundamental instances the measured luminescence decay time .tau. is a function of the luminescence decay times .tau.B and .tau.S, their weighting depending on the pH prevailing in the sample.
The pKa * value of the electronically excited acid (AH* or BH^+*) is in the relevant measuring range.

[4] = acid dissociation of the indicator in its electronic ground state (pKa); conditions: for pKa acidic form (AH) in ground state: indicator acid AH; for pKa acidic form (BH^+) in ground state: indicator base, conjugate acid BH^+
Description: Ka acid constant (dissociation equilibrium
pK value of an acid or conjugate acid
The pKa value of the electronically non-excited acid (AH or BH^+) is in the relevant measuring range.

[5] = excitation/emission maxima of the acidic and basic forms of the indicator; conditions: for emission maximum acidic form / excitation maximum acidic form: AH; for emission maximum conjugate basic form / excitation maximum conjugate basic form: A^-; for emission maximum basic form / excitation maximum basic form: B; for emission maximum conjugate acidic form / excitation maximum conjugate acidic form: BH^+
Method: as §1, §2

[6] = excited vs ground state, decrease

SMILES | measuring range [1] | luminescence decay time excited state .tau.(AH*) [2] [ns] | luminescence decay time excited state .tau.(A-*) [2] [ns] | pKa * value in the excited state is lower than the pKa value in the ground state by [3] | pKa acidic form (AH) in ground state [4] | emission maximum acidic form [5] [nm] | excitation maximum acidic form [5] [nm] | emission maximum conjugate basic form [5] [nm] | excitation maximum conjugate basic form [5] [nm] | luminescence decay time excited state .tau.(B*) [2] [ns] | luminescence decay time excited state .tau.(BH+*) [2] [ns] | pKa * value in the excited state exceeds the pKa value in the ground state by ([3]; excited vs ground state) [units] | pKa acidic form (BH^+) in ground state [4] | emission maximum basic form [5] [nm] | excitation maximum basic form [5] [nm] | emission maximum conjugate acidic form [5] [nm] | excitation maximum conjugate acidic form [5] [nm] | pKa * value in the excited state is lower than the pKa value in the ground state by [3, 6]
O=C(O)Cc1c[nH]c2ccccc12 [3-indolylacetic acid] | 2-4 pH | 2.5 | 9.0 | approx. 2 units | ~3 | 340 | 278 | 340 | 285 |  |  |  |  |  |  |  |  | 
O=c1c2ccccc2[nH]c2ccccc12 [9(10H)-acridone] | 0.5-2.5 pH |  |  |  |  |  |  |  |  | 26 | 15 | 1.7 | 0.02 | 440 | 383 | 456 | 399 | 
c1ccc2nc3ccccc3cc2c1 [Acridine] | 4.0-7.0 pH |  |  |  |  |  |  |  |  | 14 | 33 | 5.25 | 5.45 | 430 | 356 | 475 | 356 | 
Oc1ccc2ccccc2c1 [Example 2-naphthol, 2-naphthol] | 1.2-4.3 pH | 9.0 | 4.8 |  | ~9.8 | 356 | 328 | 410 | 348 |  |  |  |  |  |  |  |  | 7 units
O=Cc1ccccc1O [Salicylaldehyde] | 7-10 pH | < 1 | ~3 |  | ~8.5 | 525 | 327 | 400 | 380 |  |  |  |  |  |  |  |  | approx. 6.5 units
